Target: T1, Probable integral membrane cytochrome D ubiquinol oxidase (Subunit II) CydB (Cytochrome BD-I oxidase subunit II) (Mycobacterium tuberculosis (strain ATCC 25618 / H37Rv), UniProt O06139)
T1 sequence (O06139 whole entry): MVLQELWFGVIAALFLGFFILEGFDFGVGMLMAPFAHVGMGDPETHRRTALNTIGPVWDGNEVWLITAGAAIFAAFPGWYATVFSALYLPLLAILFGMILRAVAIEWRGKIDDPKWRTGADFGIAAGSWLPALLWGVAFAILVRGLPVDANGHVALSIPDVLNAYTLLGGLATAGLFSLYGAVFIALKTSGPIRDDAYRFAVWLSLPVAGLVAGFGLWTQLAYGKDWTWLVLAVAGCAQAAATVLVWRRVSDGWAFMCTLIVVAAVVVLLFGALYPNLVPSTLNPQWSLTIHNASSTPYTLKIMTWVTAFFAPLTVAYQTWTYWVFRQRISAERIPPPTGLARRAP
Assay: Mtb cytochrome bd inhibition assay

SMILES | IC50
COc1c(C)c(-c2ccc(Cc3ccccc3)cc2)nc2ccccc12 [US10799494, Compound CK-3-23] | 3600 nM
Cc1c(-c2ccc(N3CCCCC3)cc2)[nH]c2cc(F)cc(F)c2c1=O [US10799494, Compound MTD-403] | 270 nM
Cc1c(-c2ccc(-c3ccc(OC(F)(F)F)cc3)nc2)[nH]c2ccccc2c1=O [US10799494, Compound SL-2-25] | 290 nM
Cc1c(-c2ccc(-c3ccc(C(F)(F)F)cc3)nc2)[nH]c2ccccc2c1=O [US10799494, Example RKA 142] | 2020 nM
O=c1cc(-c2cnn(Cc3ccc(OC(F)(F)F)cc3)c2)[nH]c2ccccc12 [US10799494, Compound WDH-1W-5] | 15800 nM
Cc1c(-c2ccc(-c3ccc(C(F)(F)F)nc3)nc2)[nH]c2ccccc2c1=O [US10799494, Compound PG-128] | 4470 nM
COc1ccc2c(=O)c(C)c(-c3ccc(N4CCCCC4)cc3)[nH]c2c1 [US10799494, Compound RKA-310] | 1400 nM
Cc1c(-c2ccc(Oc3ccc(OC(F)(F)F)cc3)nc2)[nH]c2ccccc2c1=O [US10799494, Compound CK-3-22] | 140 nM
Cc1c(-c2ccc(Oc3ccc(F)cc3)nc2)[nH]c2ccccc2c1=O [US10799494, Compound CK-3-14] | 10600 nM
Cc1c(-c2ccc(N3CCCCC3)cc2)[nH]c2ccccc2c1=O [US10799494, Compound RKA-307] | 440 nM
O=c1cc(-c2ccc(Cc3ccc(OC(F)(F)F)cc3)cc2)n(O)c2ccccc12 [US10799494, Compound RKA-73] | 310 nM
CCOC(=O)c1c(-c2ccc(Cc3ccc(OC(F)(F)F)cc3)cc2)[nH]c2ccccc2c1=O [US10799494, Compound GN-1710] | 250 nM
COc1ccc2c(=O)c(C)c(-c3ccc(Oc4ccc(OC(F)(F)F)cc4)nc3)[nH]c2c1 [US10799494, Compound RKA-259] | 3600 nM
Cc1c(-c2cnn(Cc3ccc(OC(F)(F)F)cc3)c2)[nH]c2ccccc2c1=O [US10799494, Compound WDH-2A-9] | 6500 nM
CC(C)c1c(-c2cnn(Cc3ccc(OC(F)(F)F)cc3)c2)[nH]c2ccccc2c1=O [US10799494, Example WDH-2G-6] | 82 nM
O=c1cc(-c2ccc(Cc3ccc(OC(F)(F)F)cc3)cc2)[nH]c2ccccc12 [US10799494, Compound RKA-70] | 750 nM
Cc1c(-c2ccc(Cc3ccccc3)cc2)[nH]c2ccccc2c1=O [US10799494, Compound CK-2-88] | 20 nM
Cc1[nH]c2ccccc2c(=O)c1-c1ccc(Oc2ccc(OC(F)(F)F)cc2)cc1 [US10799494, Compound PG-203] | 70 nM
